The results in this text go back to PubChem BioAssay (NCI).

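Grown in 96-well plates, cells were treated for 48 hours with each compound at five concentrations. Insufficient inhibition: endpoint recorded as highest concentration tested. GI50 = concentration required for 50% inhibition of growth. TGI marks complete inhibition of growth.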 Where only a bound is given, the exact number is not on record here.

Common to all, as to assay: growth of human tumour cells (NCI), 48 h
Assay [1] relates to A549 NSCLC.
The test system of assay [2] is SW-620 colon.
For assay [3], the system named is HCC-2998 colon.
Assay [4] concerns SNB-75 CNS.
Assay [5] has as its system KM12 colon.
Assay [6] deals with COLO 205 colon.
For assay [7], the system named is EKVX NSCLC.
Assay [8] deals with NCI/ADR-RES ovarian.
The subject of assay [9] is HCT-116 colon.
Assay [10] concerns NCI-H226 lung.

As for `CCCCCc1cc(OC(=O)c2c(O)cc(OC)cc2CCCCC)cc(O)c1C(=O)O`, the TGI in [1] was 35.6 µM; in assay [2] it was 36 µM; in [3], 29 µM; in assay [4], 32.5 µM; in assay [5], 34 µM; in assay [6] it was 34.5 µM. This compound had a TGI in assay [7] of 39.9 µM.

As to `Cc1ccc([N+](=O)[O-])cc1S(=O)(=O)Nc1ccc(C2=NN(c3ccc([N+](=O)[O-])cc3[N+](=O)[O-])C(c3ccccc3)C2)cc1` (centres undefined), the TGI in assay [1] is 96.6 µM; in assay [8], 49.4 µM; in assay [2] it was > 100 µM; in assay [4], 52.4 µM; in assay [5] it was 44.8 µM; in [9], 27.4 µM. Besides, the TGI in assay [10] stood at 35.6 µM; in assay [6] it was 37.4 µM; in assay [7], 34.6 µM.

Regarding `O=C(c1ccc(Cl)cc1)c1ccc(OCC(=O)N2CCN(c3ccccc3)CC2)cc1`, the TGI in assay [1], in assay [2], in assay [3], in assay [4], in assay [5] and in assay [9] was > 100 µM each time. In addition, the TGI in [10], in assay [6] and in assay [7] was > 100 µM throughout.

As for `COC(=O)C12Oc3ccc(-c4ccc5c(c4O)C(=O)C4=CCC(C)C(O)C4(C(=O)OC)O5)c(O)c3C(=O)C1=CCC(C)C2O` (centres undefined), the TGI stood at 6.59 µM in [1]; 2.65 µM in [2]; 2.6 µM in assay [3]; 20.5 µM in assay [4]; 3.26 µM in [5]; 2.15 µM in [9]. Besides, the results for the TGI in assay [10], in assay [6] and in assay [7] were 3.77 µM, 2.75 µM and 4.97 µM, respectively.

As to `CC(=O)Oc1ccc(/C=C/C(=O)O[C@@H](C)[C@H](C)OC(=O)/C=C/c2ccc(OC(C)=O)c(OC(C)=O)c2)cc1OC(C)=O`, the TGI in [1] was > 100 µM; in [8], > 100 µM; in assay [2], 35.3 µM; in assay [3] it was 50.4 µM; in assay [4], > 100 µM; in assay [5] it was 78.8 µM. The TGI was > 100 µM in assay [9], > 100 µM in assay [6] and 79.7 µM in assay [7].

Take `CCC(C)[C@H](NC(=O)N[C@H](C)c1ccccc1)C(=O)OC` (some centres undefined): the TGI in assay [1], in [2], in [3], in assay [4], in [5] and in assay [9] was > 100 µM each time. In addition, the TGI in [10], in [6] and in assay [7] was > 100 µM in each case.

In the case of `CC(=O)C1CC(C)=CCC12C(=O)Nc1ccccc12` (centres undefined), the TGI in [1], in assay [2], in [3], in [4], in [5] and in assay [9] was > 100 µM each time. Besides, the TGI in [10], in assay [6] and in [7] was > 100 µM in each case.

Turning to `COc1cc(OC)c2c(O)cc(CC(C)O)cc2c1` (centres undefined), the TGI in assay [1], in [2], in assay [3], in [4], in assay [5] and in [9] was > 100 µM each time. Also, the TGI in assay [6] and in assay [7] was > 100 µM in each case.

On to `CC(C)(C)OC(=O)n1cc(C2CNC(=O)C23CCC(=O)N3Cc2ccccc2)c2ccccc21` (centres undefined), for which the TGI in [1] is 40.4 µM; in assay [8] it was > 100 µM; in assay [2], > 100 µM; in assay [4] it was 38.2 µM; in assay [5], 78.3 µM; in [9] it was > 100 µM. Moreover, the figures for the TGI in assay [10], in [6] and in assay [7] were 41.4 µM, 33.4 µM and 54.6 µM, respectively.

Turning to `CN(C)C(=S)N/N=C\C=N/NC(=S)N(C)C`, the TGI in assay [1], in assay [2], in assay [3], in [4], in assay [5] and in assay [9] was > 100 µM throughout. For the same compound, the TGI was > 81.9 µM in assay [10], > 100 µM in assay [6] and > 100 µM in assay [7].

In the case of `Cc1c(C)c(C)c(-n2[nH]c(=O)n(C)c2=O)c(C)c1C`, the TGI in assay [1], in [8], in [2], in assay [4], in [5] and in assay [9] was > 100 µM in each case. For the same compound, the TGI in assay [10], in assay [6] and in assay [7] was > 100 µM each time.

In the case of `COC1=CC(=O)c2ccccc2C1(CCC=C(C)C)C1=NC(C)(C)CO1` (centres undefined), the TGI in assay [1], in [2], in assay [4], in assay [5], in assay [9] and in [10] was > 100 µM throughout. For the same compound, the TGI in assay [6] and in assay [7] was > 100 µM in each case.

Regarding `N/N=C(\C(=O)Nc1c(Cl)cc([N+](=O)[O-])cc1Cl)C(c1cnc2ccc([N+](=O)[O-])cc2n1)[N+](=O)[O-]` (centres undefined), the TGI in assay [1], in assay [2], in assay [3], in assay [4], in assay [5] and in assay [9] was > 100 µM in each case. For the same compound, the TGI in [10], in assay [6] and in [7] was > 100 µM throughout.

Consider `CN(C)c1ccc(/C=N/Nc2nc3ccccc3c(=O)n2-c2ccccc2)cc1`, for which the TGI is > 100 µM in [1]; > 100 µM in assay [8]; > 100 µM in assay [2]; > 100 µM in assay [3]; 57.5 µM in assay [4]; > 100 µM in assay [5]. In addition, the TGI in assay [9], in assay [10] and in assay [6] was > 100 µM throughout.

On to `CCC1C(=O)C[C@H]2[C@@H]3C(O)CC4=CC(=O)CC[C@]4(C)[C@H]3CC[C@]12C` (some centres undefined), for which the TGI in assay [1], in assay [8], in [2], in assay [3], in assay [4] and in assay [5] was > 50 µM in each case. The TGI in [9], in assay [6] and in assay [7] was > 50 µM each time.

Regarding `N=C(N)SCCON1C(=O)c2ccccc2C1=O`, the TGI in assay [1], in assay [8], in [2], in [4], in assay [5] and in assay [9] was > 100 µM throughout. Also, the TGI in [10], in assay [6] and in assay [7] was > 100 µM in each case.

As for `CCOC/N=C(/N)NC#N`, the TGI was > 100 µM in assay [1]; 35.3 µM in assay [2]; > 100 µM in [3]; > 100 µM in assay [4]; > 100 µM in assay [5]; > 100 µM in [9]. For the same compound, the TGI in assay [10], in assay [6] and in [7] was > 100 µM each time.

As to `O=C(CSc1nc2ccccc2[nH]1)Nc1ccc(-c2nc3ccccc3s2)c(Cl)c1`, the GI50 in assay [1] is 3.25 µM; in [8], 4.41 µM; in [2], 4.78 µM; in assay [3], 2.77 µM; in assay [4] it was 6.58 µM; in assay [5] it was 2.67 µM. For the same compound, the GI50 is 4.16 µM in assay [6] and 6.82 µM in assay [7]. The TGI is > 100 µM in assay [1]; > 100 µM in assay [8]; > 100 µM in assay [2]; 9.4 µM in assay [3]; > 100 µM in [4]; 8.1 µM in assay [5]. For the same compound, the values for the TGI in assay [6] and in [7] were 51.4 µM and > 100 µM, respectively.

As for `CCNC(=O)Nc1cccc(C)n1`, the TGI in assay [1], in assay [2], in [3], in assay [4], in assay [5] and in assay [9] was > 100 µM in each case. Besides, the TGI in assay [10], in [6] and in [7] was > 100 µM in each case.

Turning to `CCOC(=O)/C(=C\NCC(O)c1ccccc1)c1nc2ccccc2[nH]1` (centres undefined), the TGI in [1] is > 100 µM; in [8], 67.9 µM; in [2], > 100 µM; in assay [3], 42.2 µM; in assay [4] it was 58.2 µM; in [5], 67.9 µM. Also, the values for the TGI in [9], in assay [6] and in assay [7] were 86.3 µM, 49.8 µM and 91.5 µM, respectively.

In the case of `COc1ccc2[nH]c3c(c2c1)CCN(C)CC3`, the TGI in assay [1], in assay [2], in [3], in assay [4], in assay [5] and in assay [9] was > 100 µM throughout. Also, the TGI in assay [6] and in [7] was > 100 µM in each case.

`NCCC(N)C(=O)O` (centres undefined): the TGI in assay [1], in assay [8], in assay [2], in assay [5], in assay [9] and in assay [10] was > 100 µM each time. The TGI in assay [6] and in assay [7] was > 100 µM throughout.

For `Brc1ccc(N=NN2CCCCC2)cc1`, the TGI in assay [8], in [2], in [4], in assay [5], in assay [9] and in [10] was > 100 µM each time. Also, the TGI in assay [6] and in [7] was > 100 µM each time.

On to `Cc1ccc(C)n2c1nc1ccc3ccccc3c12`, for which the TGI in [1] was > 100 µM; in [8], > 100 µM; in assay [2] it was > 100 µM; in [3] it was > 100 µM; in [4] it was 86 µM; in [5], > 100 µM. Further, the TGI in assay [10], in assay [6] and in assay [7] was > 100 µM each time.

`COc1cccc2cc(C)c(C(=O)c3ccccc3)nc12`: the TGI in assay [1], in [2], in [3], in assay [4], in [5] and in [9] was > 100 µM in each case. Also, the TGI in [10], in [6] and in assay [7] was > 100 µM throughout.

For `CC1(C)OC2OC(COC(=O)C=[N+]=[N-])C3OC(C)(C)OC3C2O1` (centres undefined), the TGI in assay [2], in assay [3], in assay [5], in assay [9], in [10] and in [6] was > 100 µM in each case. Besides, the TGI in assay [7] is > 100 µM.

As for `COc1ccc2c(c1)O[C@@H]1C(O)Oc3cc(OC)c(OC)cc3[C@]1(O)C2=O` (some centres undefined), the TGI in assay [1], in assay [8], in [2], in assay [4], in [5] and in [9] was > 100 µM each time. Further, the TGI in [10] is 83.9 µM; in assay [6], > 100 µM; in assay [7], > 100 µM.

With `CCCCOC(=O)CNC(=O)OCCCCC#CC#CCCCCOC(=O)NCC(=O)OCCCC`, the TGI in assay [1], in [2], in assay [3], in assay [4], in assay [5] and in assay [9] was > 100 µM throughout. The TGI in [10], in [6] and in assay [7] was > 100 µM in each case.

For the compound `Cc1cnoc1NC1=CC(=O)C(=O)c2ccccc21`, the TGI in [1] was 63.8 µM; in assay [8], 70.9 µM; in assay [2], 80.4 µM; in assay [4] it was > 100 µM; in [5], > 100 µM; in assay [9] it was 70.8 µM. The TGI in assay [10], in assay [6] and in assay [7] was > 100 µM each time.
